Columns and labels:
Format in all cases: in vivo
[1] = system: male testis-specific non-mitochondrial GPx4 knockout mouse; test: Testis tissue observation (hematoxylin eosin), removal of spermatocytes; settings: "VE high-content feed": vitamin E 100 mg + CE-2 feed 100 g; FIG. 6
Text: (§1) A single 3 weeks-old male testis-specific non-mitochondrial GPx4 knockout mouse was assigned to each of the four groups shown in Table 2 (below) and separately raised (singly per cage) up to 8 weeks-old. To a normal control group, mouse breeding feed CE-2 (CLEA Rodent Diet CE-2; a product manufactured by CLEA Japan, Inc.) was fed during the test period. As a positive control substance, vitamin E (Non Patent Literature 1), which is used in treatment for male infertility, was selected and a mixture of feed CE-2 and vitamin E was fed to a positive control substance administration group during the test period. The ratio of vitamin E in the mixture was 100 mg relative to 100 g of feed CE-2. To the test groups, a mixture of feed CE-2 and koji mold fermentation product obtained in Example 1 was fed during the test period. For a low dose group, a feed having a content of koji mold fermentation product of 0.5 wt % was used. For a high dose group, a feed having a content of koji mold fermentation product of 5.0 wt % was used. Feed CE-2 and feed CE-2 mixed with the positive control substance or a koji mold fermentation product were free to take and water was free to drink from a water-supply bottle. In the aforementioned conditions, mice were raised from 3 weeks-old to 8 weeks-old. […]

[2] = system: male testis-specific non-mitochondrial GPx4 knockout mouse; test: Mating test of male infertility model mouse (number of pregnancies and child mice); settings: "VE high-content feed": vitamin E 100 mg + CE-2 feed 100 g, mating period 3 months
Text: In this Example, as a male infertility model mouse, a male testis-specific non-mitochondrial GPx4 knockout mouse was used (see, Non Patent Literature 2). The testis-specific non-mitochondrial GPx4 knockout mouse is a mouse deficient in non-mitochondrial phospholipid hydroperoxide glutathione peroxidase (cGPx4) in the testis and has the phenotypes listed in the following Table 1.
A single 3 weeks-old male testis-specific non-mitochondrial GPx4 knockout mouse was assigned to each of the four groups shown in Table 2 (below) and separately raised (singly per cage) up to 8 weeks-old. To a normal control group, mouse breeding feed CE-2 (CLEA Rodent Diet CE-2; a product manufactured by CLEA Japan, Inc.) was fed during the test period. As a positive control substance, vitamin E (Non Patent Literature 1), which is used in treatment for male infertility, was selected and a mixture of feed CE-2 and vitamin E was fed to a positive control substance administration group during the test period. The ratio of vitamin E in the mixture was 100 mg relative to 100 g of feed CE-2. To the test groups, a mixture of feed CE-2 and koji mold fermentation product obtained in Example 1 was fed during the test period. For a low dose group, a feed having a content of koji mold fermentation product of 0.5 wt % was used. For a high dose group, a feed having a content of koji mold fermentation product of 5.0 wt % was used. Feed CE-2 and feed CE-2 mixed with the positive control substance or a koji mold fermentation product were free to take and water was free to drink from a water-supply bottle. In the aforementioned conditions, mice were raised from 3 weeks-old to 8 weeks-old.
When male testis-specific non-mitochondrial GPx4 knockout mice grew up to be crossable (8 weeks-old) mice, three of 7 weeks-old BALB/c female mice were assigned to each cage and crossed with a single male testis-specific non-mitochondrial GPx4 knockout mouse. The mating period was 3 months. […]

[3] = system: male testis-specific non-mitochondrial GPx4 knockout mouse; test: Abnormal sperm ratio and sperm-tail fold angle by microscopy; settings: "VE high-content feed": vitamin E 100 mg + CE-2 feed 100 g; FIG. 4
Text: as §1, with “used.” for “used. For a high dose group, a feed having a content of koji mold fermentation product of 5.0 wt % was used. Feed CE-2 and feed CE-2 mixed with the positive control substance or a koji mold fermentation product were free to take and water was free to drink from a water-supply bottle. In the aforementioned conditions, mice were raised from 3 weeks-old to 8 weeks-old.”
In a testis-specific non-mitochondrial GPx4 knockout mouse, a half or more of the sperms have an abnormal structure (a sperm tail is folded to form a hair-pin structure); in other words, abnormal sperm morphology. […] The sperms in a plurality of fields of view under the microscope were photographed, and the numbers of normal sperms and abnormal sperms in the photographs were counted, and then, an average ratio of abnormal sperms was calculated.

vitamin E
removal of the spermatocytes in testis tissue [1]: improved | total number of child mice ([2]; 3 females, FIG. 2b): 60 | number of child mice per delivery of the female mice ([2]; FIG. 2c): 7 | total number of pregnancies of three female mice ([2]; single male x 3 BALB/c females, FIG. 2a): 8 | significantly low ratio of abnormal sperms [3]: not observed

Source: US20210128654A1, “COMPOSITION FOR TREATING, PREVENTING, OR IMPROVING MALE INFERTILITY” (Mugen General Incorporated Association, priority 2018, published 2021)
